Peptide text beside a SMILES is read from it. * marks the point of attachment. 5FAM = O=C1OC2(c3ccc(O)cc3Oc3cc(O)ccc32)c2ccc(C(=O)*)cc21
Assay: in vivo
Design: species or system BALB/C athymic nude mice
Conditions: BALB/C athymic nude, mouse, iv, 150 uL of 1 mM, T/NT ratio
Description: Mice with U87MG tumor xenografts (n = 10) were randomly divided into an experimental group (n = 5) and control group (n = 5). The mice in the experimental group were intravenously injected with 150 μL of FAM-tLyP-1 (1mM), while the control group received 150 μL of FAM-labeled control peptide (1mM). The mice were sacrificed after 1 h by cervical dislocation under ketamine/xylazine anesthesia. The tumor and normal organs were then removed, washed with PBS at least three times, and then collected for imaging ex vivo. FAM-tLyP-1 uptake in the tumor and normal organs was described by a blinded observer under blue light with an exposure time of 60 s, using the Kodak in-Vivo Imaging System F (Kodak, American), and processed for fluorescence intensity analysis. The fluorescence intensity was analyzed visually based on the brightness of the green light indicating uptake of FAM-tLyP-1.
The intensity of FAM-tLyP-1 uptake in the tumor and normal organs was analyzed blindly using the Kodak MI analysis software (Kodak, American). The fluorescence intensity was analyzed visually from high to low levels based on a color scale of white, red, yellow, green, blue, and black. Regions of interest (ROIs) were drawn around the border of the tumor and normal organs on the fluorescence images and the average fluorescence intensity was measured. The tumor/non-tumor ratios (T/NT ratios) were calculated by dividing the fluorescence intensity in the tumor by that of the normal organs.

tissue to tissue ratio at 1 h (T/brain) | tissue to tissue ratio at 1 h (T/heart) | tissue to tissue ratio at 1 h (T/intestine) | tissue to tissue ratio at 1 h (T/kidney) | tissue to tissue ratio at 1 h (T/liver) | tissue to tissue ratio at 1 h (T/lung) | tissue to tissue ratio at 1 h (T/muscle) | tissue to tissue ratio at 1 h (T/spleen) | SMILES
1.32 ± 0.15 | 1.94 ± 0.26 | 0.87 ± 0.3 | 0.57 ± 0.51 | 1.28 ± 0.25 | 1.4 ± 0.1 | 1.31 ± 0.14 | 1.75 ± 0.17 | CSCC[C@H](N)C(=O)N[C@@H](C)C(=O)N[C@@H](CCC(N)=O)C(=O)N[C@@H](CCCCNC(=O)c1ccc2c(c1)C(=O)OC21c2ccc(O)cc2Oc2cc(O)ccc21)C(=O)N[C@H](C(=O)N[C@@H](CO)C(=O)N[C@@H](Cc1c[nH]cn1)C(=O)O)[C@@H](C)O [FAM-control peptide] (H-MAQK(5FAM)TSH-OH)
3.44 ± 0.83 | 4.61 ± 1 | 0.84 ± 0.35 | 0.88 ± 0.74 | 2.34 ± 0.36 | 3.29 ± 0.79 | 2.87 ± 0.45 | – | C[C@@H](O)[C@H](NC(=O)[C@H](CCCNC(=N)N)NC(=O)[C@H](CCCCNC(=O)c1ccc2c(c1)C(=O)OC21c2ccc(O)cc2Oc2cc(O)ccc21)NC(=O)[C@H](CC(N)=O)NC(=O)CNC(=O)[C@@H](N)CS)C(=O)N[C@@H](CCCNC(=N)N)C(=O)O [FAM-tLyP-1] (H-CGNK(5FAM)RTR-OH)

— paper PMC4580457, “Use of Labelled tLyP-1 as a Novel Ligand Targeting the NRP Receptor to Image Glioma” (PLoS ONE, 2015)
